The record followed here is patent publication US10934310B2, “Inhibitors of Bruton's tyrosine kinase and method of their use” (JANSSEN PHARMACEUTICA NV, priority 2015, dated 2021).

Bounds are passed on as bounds.

Chain of unphosphorylated-BTK kinase domain (UP-BTK), GST-tagged human BTK (389-659aa) (Q06187 389-659): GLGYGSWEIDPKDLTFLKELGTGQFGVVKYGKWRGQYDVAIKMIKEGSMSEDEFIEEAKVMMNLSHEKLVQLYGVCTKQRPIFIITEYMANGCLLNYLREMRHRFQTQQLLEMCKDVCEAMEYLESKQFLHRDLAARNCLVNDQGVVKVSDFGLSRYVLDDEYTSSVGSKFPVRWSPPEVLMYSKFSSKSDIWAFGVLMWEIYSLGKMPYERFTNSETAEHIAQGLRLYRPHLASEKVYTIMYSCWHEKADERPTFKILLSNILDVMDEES

One assay deals with unphosphorylated-BTK kinase domain (UP-BTK), GST-tagged human BTK (389-659aa) (Homo sapiens (Human), UniProt Q06187). As to the kind of experiment: BTK Kinase Lanthascreen Binding Assay. The following applies: compound, 50 nM Tracer 236, 2 nM anti-GST antibody, 60 minutes; pIC50 = negative log of the IC50 in molar. How it is done: BTK Kinase Lanthascreen Binding Assay:
A BTK kinase lanthascreen binding assay monitors compound binding to unphosphorylated-BTK kinase domain (UP-BTK), by competing with a fluorescent labeled tracer. […] Data were analyzed using Xlfit™ version 5.3 from ID Business Solutions (Guildford), Microsoft Excel add-in. pIC50 refers to the negative log of the IC50 in molar.
Background: TR-FRET usually uses a lanthanide donor and a delayed reading to cut background.
As to `C=CC(=O)N[C@H]1CC[C@@H](NC(=O)c2sc3nccc4c3c2NC(=O)N4c2ccc(Oc3ccccc3)cc2)CC1` [Example 119, N-((1S,4S)-4-Acrylamidocyclohexyl)-4-oxo-5-(4-phenoxyphenyl)-4,5-dihydro-3H-1-thia-3,5,8-triazaacenaphthylene-2-carboxamide], the “BTK_I_binding pIC50” value was 7.61.
The same measure, in the same setting: the result for `C=CC(=O)N[C@H]1CC[C@@H](NC(=O)c2sc3nccc4c3c2NC(=O)N4c2ccc(Oc3ccccc3)cc2)C1` [Example 121, N-((1R,3S)-3-Acrylamidocyclopentyl)-4-oxo-5-(4-phenoxyphenyl)-4,5-dihydro-3H-1-thia-3,5,8-triazaacenaphthylene-2-carboxamide] reads 6.57; that for `C=CC(=O)N[C@@H]1CCCC[C@@H]1NC(=O)c1sc2nccc3c2c1NC(=O)N3c1ccc(Oc2ccccc2)cc1` [Example 124, N-((1S,2R)-2-Acrylamidocyclohexyl)-4-oxo-5-(4-phenoxyphenyl)-4,5-dihydro-3H-1-thia-3,5,8-triazaacenaphthylene-2-carboxamide], 6.71; that for `N[C@H]1CCCC[C@H]1NC(=O)c1sc2nccc3c2c1NC(=O)N3c1ccc(Oc2ccccc2)cc1` [Example 126, N-((1R,2S)-2-Aminocyclohexyl)-4-oxo-5-(4-phenoxyphenyl)-4,5-dihydro-3H-1-thia-3,5,8-triazaacenaphthylene-2-carboxamide], 7.13.
With `C=CC(=O)N[C@@H]1CCC[C@@H]1NC(=O)c1sc2nccc3c2c1NC(=O)N3c1ccc(Oc2ccccc2)cc1` [Example 127, N-((1S,2R)-2-Acrylamidocyclopentyl)-4-oxo-5-(4-phenoxyphenyl)-4,5-dihydro-3H-1-thia-3,5,8-triazaacenaphthylene-2-carboxamide], the “BTK_I_binding pIC50” value is on record as 6.56.
Still for that read-out and setting: the result for `N[C@H]1CCCC[C@H]1NC(=O)c1sc2nccc3c2c1NC(=O)N3c1ccc(Oc2ccccc2)c(Cl)c1` [Example 137, N-((1R,2S)-2-Aminocyclohexyl)-5-(3-chloro-4-phenoxyphenyl)-4-oxo-4,5-dihydro-3H-1-thia-3,5,8-triazaacenaphthylene-2-carboxamide] reads 7.49.
`O=C(N[C@@H]1CCC[C@@H](O)C1)c1sc2nccc3c2c1NC(=O)N3c1ccc(Oc2ccccc2)cc1` [Example 139, N-((1R,3R)-3-Hydroxycyclohexyl)-4-oxo-5-(4-phenoxyphenyl)-4,5-dihydro-3H-1-thia-3,5,8-triazaacenaphthylene-2-carboxamide]: the “BTK_I_binding pIC50” value stood at 7.23.
On the same count and under the same terms, to `O=C(N[C@@H]1CCC[C@@H]1O)c1sc2nccc3c2c1NC(=O)N3c1ccc(Oc2ccccc2)cc1` [Example 140, N-((1R,2S)-2-Hydroxycyclopentyl)-4-oxo-5-(4-phenoxyphenyl)-4,5-dihydro-3H-1-thia-3,5,8-triazaacenaphthylene-2-carboxamide] belongs 7.15; to `N[C@H]1CCCC[C@H]1NC(=O)c1sc2nccc3c2c1NC(=O)N3c1cccc(-c2ccccc2)c1` [Example 141, 5-([1,1′-Biphenyl]-3-yl)-N-((1R,2S)-2-aminocyclohexyl)-4-oxo-4,5-dihydro-3H-1-thia-3,5,8-triazaacenaphthylene-2-carboxamide], 7.01; to `O=C(N[C@@H]1CCC[C@H](O)C1)c1sc2nccc3c2c1NC(=O)N3c1ccc(Oc2ccccc2)cc1` [Example 142, N-((1R,3S)-3-Hydroxycyclohexyl)-4-oxo-5-(4-phenoxyphenyl)-4,5-dihydro-3H-1-thia-3,5,8-triazaacenaphthylene-2-carboxamide], 6.87.
Still for that read-out and setting: the result for `O=C(N[C@H]1CCC[C@H](O)C1)c1sc2nccc3c2c1NC(=O)N3c1ccc(Oc2ccccc2)cc1` [Example 143, N-((1S,3S)-3-Hydroxycyclohexyl)-4-oxo-5-(4-phenoxyphenyl)-4,5-dihydro-3H-1-thia-3,5,8-triazaacenaphthylene-2-carboxamide] reads 6.75.
Still for that read-out and setting: the result for `O=C(N[C@@H]1CCC[C@H]1O)c1sc2nccc3c2c1NC(=O)N3c1cccc(-c2ccccc2)c1` [Example 144, 5-([1,1′-Biphenyl]-3-yl)-N-((1R,2R)-2-hydroxycyclopentyl)-4-oxo-4,5-dihydro-3H-1-thia-3,5,8-triazaacenaphthylene-2-carboxamide] reads 6.69.
For `N[C@H]1CC[C@@H](NC(=O)c2sc3nccc4c3c2NC(=O)N4c2ccc(Oc3ccccc3)cc2)CC1` [Example 145, N-((1S,4S)-4-Aminocyclohexyl)-4-oxo-5-(4-phenoxyphenyl)-4,5-dihydro-3H-1-thia-3,5,8-triazaacenaphthylene-2-carboxamide], the “BTK_I_binding pIC50” value turned out to be 6.69.
On to `N[C@H]1CC[C@H](NC(=O)c2sc3nccc4c3c2NC(=O)N4c2ccc(Oc3ccccc3)cc2)CC1` [Example 146, N-(trans-(1R,4R)-4-Aminocyclohexyl)-4-oxo-5-(4-phenoxyphenyl)-4,5-dihydro-3H-1-thia-3,5,8-triazaacenaphthylene-2-carboxamide], for which the “BTK_I_binding pIC50” value was determined as 6.66.
The same measure, in the same setting: to `N[C@H]1CCC[C@@H]1NC(=O)c1sc2nccc3c2c1NC(=O)N3c1ccc(Oc2ccccc2)cc1` [Example 148, N-((1S,2S)-2-Aminocyclopentyl)-4-oxo-5-(4-phenoxyphenyl)-4,5-dihydro-3H-1-thia-3,5,8-triazaacenaphthylene-2-carboxamide] belongs 6.47.
Still for that read-out and setting: the result for `N[C@@H]1CCCC[C@H]1NC(=O)c1sc2nccc3c2c1NC(=O)N3c1ccc(Oc2ccccc2)cc1` [Example 149, N-((1R,2R)-2-Aminocyclohexyl)-4-oxo-5-(4-phenoxyphenyl)-4,5-dihydro-3H-1-thia-3,5,8-triazaacenaphthylene-2-carboxamide] reads 6.45; that for `CC(C)(C)OC(=O)N[C@@H]1CC[C@H](NC(=O)c2sc3nccc4c3c2NC(=O)N4c2ccc(Oc3ccccc3)cc2)C1` [Example 150, tert-Butyl ((1R,3S)-3-(4-oxo-5-(4-phenoxyphenyl)-4,5-dihydro-3H-1-thia-3,5,8-triazaacenaphthylene-2-carboxamido)cyclopentyl)carbamate], 6.40; that for `CC(C)(C)OC(=O)N[C@H]1CC[C@H](NC(=O)c2sc3nccc4c3c2NC(=O)N4c2ccc(Oc3ccccc3)cc2)CC1` [Example 151, tert-Butyl trans-((1R,4R)-4-(4-oxo-5-(4-phenoxyphenyl)-4,5-dihydro-3H-1-thia-3,5,8-triazaacenaphthylene-2-carboxamido)cyclohexyl)carbamate], 6.33.
Same read-out and setting: to `O=C(NCC1(O)CCCCC1)c1sc2nccc3c2c1NC(=O)N3c1ccc(Oc2ccccc2)cc1` [Example 152, N-((1-Hydroxycyclohexyl)methyl)-4-oxo-5-(4-phenoxyphenyl)-4,5-dihydro-3H-1-thia-3,5,8-triazaacenaphthylene-2-carboxamide] belongs 6.25; to `Cc1cc(OC(C)C)ccc1N1C(=O)Nc2c(C(=O)N[C@H]3CC[C@@H](NC(=O)/C=C/CN(C)C)C3)sc3nccc1c23` [Example 153, N-((1S,3R)-3-((E)-4-(Dimethylamino)but-2-enamido)cyclopentyl)-5-(4-isopropoxy-2-methylphenyl)-4-oxo-4,5-dihydro-3H-1-thia-3,5,8-triazaacenaphthylene-2-carboxamide], 6.44.
As for `O=C(N[C@H]1CCC[C@@H](O)C1)c1sc2nccc3c2c1NC(=O)N3c1ccc(Oc2ccccc2)cc1` [Example 157, N-((1S,3R)-3-Hydroxycyclohexyl)-4-oxo-5-(4-phenoxyphenyl)-4,5-dihydro-3H-1-thia-3,5,8-triazaacenaphthylene-2-carboxamide], the “BTK_I_binding pIC50” value was found to be 6.19.
On the same count and under the same terms, to `Cc1cc(OC(C)C)ccc1N1C(=O)Nc2c(C(=O)N[C@H]3CC[C@@H](NC(=O)CN(C)C)C3)sc3nccc1c23` [Example 158, N-((1S,3R)-3-(2-(Dimethylamino)acetamido)cyclopentyl)-5-(4-isopropoxy-2-methylphenyl)-4-oxo-4,5-dihydro-3H-1-thia-3,5,8-triazaacenaphthylene-2-carboxamide] belongs 6.11; to `CC(C)(C)OC(=O)N[C@H]1CC[C@@H](NC(=O)c2sc3nccc4c3c2NC(=O)N4c2ccc(Oc3ccccc3)cc2)CC1` [Example 163, tert-Butyl ((1S,4S)-4-(4-oxo-5-(4-phenoxyphenyl)-4,5-dihydro-3H-1-thia-3,5,8-triazaacenaphthylene-2-carboxamido)cyclohexyl)carbamate], 5.43.

The assay is the same for the next values; noted with them: read-out: BTK_I_binding pIC50 (converted).
`CCC(=O)N[C@@H]1CCC[C@@H]1NC(=O)c1sc2nccc3c2c1NC(=O)N3c1ccnc(-c2ccccc2)c1` [Example 159, 4-Oxo-5-(2-phenylpyridin-4-yl)-N-((1S,2R)-2-propionamidocyclopentyl)-4,5-dihydro-3H-1-thia-3,5,8-triazaacenaphthylene-2-carboxamide]: the IC50 is above 1000 nM.
On the same count and under the same terms, the result for `Cc1cc(OC(C)C)ccc1N1C(=O)Nc2c(C(=O)N[C@@H]3CCCC[C@@H]3N)sc3nccc1c23` [Example 160, N-((1R,2S)-2-Aminocyclohexyl)-5-(4-isopropoxy-2-methylphenyl)-4-oxo-4,5-dihydro-3H-1-thia-3,5,8-triazaacenaphthylene-2-carboxamide] reads above 1000 nM.
On the same count and under the same terms, the result for `CNCC(=O)N[C@@H]1CC[C@H](NC(=O)c2sc3nccc4c3c2NC(=O)N4c2ccc(OC(C)C)cc2C)C1` [Example 161, 5-(4-Isopropoxy-2-methylphenyl)-N-((1S,3R)-3-(2-(methylamino)acetamido)cyclopentyl)-4-oxo-4,5-dihydro-3H-1-thia-3,5,8-triazaacenaphthylene-2-carboxamide] reads above 1000 nM.
